Data taken from patent US10968190B2, “Processes for preparing oxathiazin-like compounds” (GEISTLICH PHARMA AG, priority 2014, dated 2021).
Values after ≈ are worked out from the molar mass of the structure shown. Read-outs that look alike come from different tables or passages of the source.

How the values were obtained:
[1] = tested on: cancers identified herein; assay: Administration to patients having cancers (Example 5); assay type: in vivo; details: Example 5, present tense
Procedure: Each of these compounds is administered with Vitamin D3, a derivative, metabolite or analog thereof and the combination is found to increase the anti-tumor effects of the compounds.

[2] = tested on: cancer stem cells (CSC) derived from four glioblastoma patients; assay: Cytotoxicity in cancer stem cells from glioblastoma patients; assay type: cell-based, human; details: for Cytotoxicity EC50, Mean ± SD: mean of CSCs from four glioblastoma patients
Procedure: Tissue samples from high grade gliomas WHO grade IV from newly diagnosed patients (medium age of 54±10 years) were minced mechanically, digested enzymatically and the dissociated cells were filtered. The isolated tumor cells were cultured as bulk cells. Cancer Stem Cells (CSCs) were isolated by the formation of neurospheres under neurosphere conditions (using neurobasal medium) from the murine SMA 560 glioma cell line or from freshly isolated human glioblastoma cells.
The number of remaining adherent cells were stained (crystal violet or Alamar Blue) and quantified by absorbance measurements (540 nm). Cell survival was expressed as the percentage of cells surviving relative to the number of cells surviving in untreated control cultures. The results are given as % killing rate or EC50 as the dose required for half-maximal cytotoxicity. Results
CSCs were isolated from glioblastoma tissue resected from four patients. […].

[3] = Portnow et al., Clin Cancer Res 15, 7092-7098, 2009; cited from earlier work
[4] = tested on: human glioma cell line LN-229; assay: Cytotoxicity assay in LN-229 cells (crystal violet); assay type: cell-based; details: for OD (absorbance at 540 nm; high values = high cell viability): 24 h
Procedure: Cell lines: The human glioma cell line LN-229 was used as described previously (Rodak et al. 2005) as well as the human colon adenocarcinoma cell line SW480.
Cytotoxicity assay: Dissociated LN-229 cells were seeded into 96-well plates at a density of 10^4 cells per well in 100 μl of culture medium. […] Triplicate cultures were prepared for each sample. After 24 h of incubation at […], the remaining adherent viable cells were stained using crystal violet as described (Rodack et al. 2005). Cell viability was determined by measuring the absorbancy at 540 nm. The results are expressed as killing rate given by the difference between 100% of cells and percentage of cells surviving. EC50 values correspond to the concentration inducing 50% cell death.

[5] = Half-life in human fresh blood in vitro by GC; assay type: in vitro ADME; details: same test, human blood
[6] = tested on: multicellular pancreatic tumor (Panc Tul or BxPC-3) spheroids; assay: Pancreatic stem cell-like multicellular spheroid toxicity assay; assay type: cell-based; details: taurolidine 500 μM, compound 2250 1000 μM, 48 hours
Excerpt: Multicellular spheroids are composed of tumor cells growing in a 3-dimensional structure stimulating the growth, micro-environmental conditions and stem cell-like characteristics of real tumors. The multicellular tumor spheroid (MCTS) model compensates for many of the deficiencies seen in monolayer cultures. Spheroids on the scale of 200-500 μm develop chemical gradients of oxygen, nutrients, and catabolites, while having morphological and functional features similar to tumors. Therefore, assays utilizing the MCTS model allow for the assessment of drug penetration and are more predictive of in vivo success compared with monolayer cultures. MCTS assays are a tumor model system of intermediate complexity between standard monolayer and tumors in vivo.
Pancreatic tumor cells (Panc Tu-1, BxPC-3, Mia Paca-2, ASPC1) and pancreatic primary tumor cells (Bo80) were seeded in ultra-low adhesion plates in special stem cell media.
Pancreatic tumor cells (ASPC1, Mia Paca-2, Panc Tul, BxPC-3) and pancreatic primary tumor cells (Bo80) were raised in monolayer culture before seeding in ultra low adhesion plates under conditions of special stem cell media to form multicellular spheroids and passed through a cell strainer to exclude aggregates. […]

MiaPaca2 tumor = assay: MiaPaca2 subcutaneous tumor model in nude mice; assay type: in vivo, nude mice (NMRI-Foxn1 nu/nu); details: 500 mg/kg i.p. on alternating days
PancTu I tumor = assay: PancTu I subcutaneous tumor model in nude mice; assay type: in vivo, nude mice (NMRI-Foxn1 nu/nu); details: 500 mg/kg i.p. on alternating days
[7] = tested on: pancreatic primary tumors (Bo 73); assay: Xenograft model of pancreatic primary tumors Bo 73; assay type: in vivo; details: Bo 73, observed for 15 days; differences not statistically relevant
Excerpt: (§1) However, the differences in tumor volumes were not statistically relevant, likely due to the short duration of the study and the slow growth rate of the tumors.

[8] = tested on: pancreatic primary tumors (Bo 70); assay: Xenograft model of pancreatic primary tumors Bo 70; assay type: in vivo; details: Bo 70, observed for 23 days
Excerpt: as §1

tumor stem cells = assay: Killing of tumor stem cells in tissue culture in vitro; assay type: cell-based
[9] = tested on: murine SMA560 glioma cancer stem cells (CSC); details: for sensitivity of CSCs versus corresponding glioma bulk cells, based on EC50: mouse SMA 560 CSCs vs bulk cells
Excerpt: (§2) The mouse SMA560 glioma cell line was used to provide tumor bulk cells and CSCs. […] Mouse CSCs were generated from the SMA560 glioma cell line and cultured for 7 days.

[10] = tested on: human glioblastoma bulk cells; details: Rodak et al., J. Neurosurg., 102, 1055-68, 2005; cited from earlier work
[11] = Toxicity in mice during the tumor study; details: 500 mg/kg i.p. on alternating days
Procedure: 1×10^7 tumor cells (PancTu-I and MiaPaca 2) were injected subcutaneously into the flank.
Tumors were grown to a size of 200 mm^3 before the treatment was started. Mice were treated on alternating days with 500 mg/kg*body weight (BW).

[12] = tested on: murine SMA 560 bulk glioma cells; details: SMA 560 bulk cells, 24 h and 48 h incubation
Excerpt: as §2

## O=S1(=O)CCN(CN2CCS(=O)(=O)OC2)CO1 [B3]
[1]
  effectiveness in treating cancers in patients: effective in treating such cancers
  safety for use in patients: safe for use in patients

## O=S1(=O)CCN(CN2CCS(=O)(=O)OC2)CN1 [B2]
[1]
  effectiveness in treating cancers in patients: effective in treating such cancers
  safety for use in patients: safe for use in patients

## O=S1(=O)CCOCN1CN1COCCS1(=O)=O [compound 2245]
[1]
  effectiveness in treating cancers in patients: effective in treating such cancers
  safety for use in patients: safe for use in patients

## Cn1nnc2c(C(N)=O)ncn2c1=O [temozolamide]
[2]; CSC GBM #3, 24 h
  Cytotoxicity EC50 (μg/ml) 24 h: 84.4 µg/mL
[2]; CSC GBM #3, 24 h, read-out: Cytotoxicity EC50 24 h
  EC50: 435 µM
[2]; CSC GBM #4, 24 h
  Cytotoxicity EC50 (μg/ml) 24 h: 97 µg/mL
[2]; CSC GBM #4, 24 h, read-out: Cytotoxicity EC50 24 h
  EC50: 500 µM
[2]; CSC GBM #5, 24 h
  Cytotoxicity EC50 (μg/ml) 24 h: 48.5 µg/mL
[2]; CSC GBM #5, 24 h, read-out: Cytotoxicity EC50 24 h
  EC50: 250 µM
[2]; CSC GBM #6, 24 h
  Cytotoxicity EC50 (μg/ml) 24 h: 44 µg/mL
[2]; CSC GBM #6, 24 h, read-out: Cytotoxicity EC50 24 h
  EC50: 230 µM
[2]; 24 h
  Cytotoxicity EC50, Mean ± SD: 68.5 ± 26 µg/mL
[3]
  peak plasma levels measured in patients: 13.7 µg/mL

## CN1COCCS1(=O)=O [compound 2255]
[1]
  effectiveness in treating cancers in patients: effective in treating such cancers
  safety for use in patients: safe for use in patients

## O=S1(=O)CCOCO1 [A3]
[1]
  effectiveness in treating cancers in patients: effective in treating such cancers
  safety for use in patients: safe for use in patients

## O=S1(=O)CCN(CN2CCS(=O)(=O)NC2)CN1 [taurolidine]
[4]; 4 μg/ml
  OD (absorbance at 540 nm; high values = high cell viability): 1.530
[4]; 8 μg/ml
  OD (absorbance at 540 nm; high values = high cell viability): 1.478
[4]; 15.5 μg/ml
  OD (absorbance at 540 nm; high values = high cell viability): 1.434
[4]; 31 μg/ml
  OD (absorbance at 540 nm; high values = high cell viability): 1.132
[4]; 62.5 μg/ml
  OD (absorbance at 540 nm; high values = high cell viability): 0.317
[4]; 250 μg/ml
  OD (absorbance at 540 nm; high values = high cell viability): 0.165
[4]; 500 μg/ml
  OD (absorbance at 540 nm; high values = high cell viability): 0.098
[4]; 1000 μg/ml
  OD (absorbance at 540 nm; high values = high cell viability): 0.109
[4]; Homo sapiens, LN-229, 24 h, LN-229 cells, 24 h incubation, read-out: EC50 (concentration inducing 50% cell death)
  EC50: 45 µg/mL (≈ 158 µM)
[4]; LN-229 cells, 24 h incubation
  EC50 (concentration inducing 50% cell death): 50 µg/mL (≈ 176 µM)
[2]; Homo sapiens, 24 h, read-out: Cytotoxicity EC50 (μg/ml) 24 h, CSC GBM #4, 24 h
  EC50: 12.5 µg/mL
[2]; Homo sapiens, 24 h, read-out: Cytotoxicity EC50 (μg/ml) 24 h, CSC GBM #5, 24 h
  EC50: 14 µg/mL
[2]; Homo sapiens, 24 h, read-out: Cytotoxicity EC50, Mean ± SD, mean of CSCs from four glioblastoma patients, 24 h
  EC50: 13 ± 2 µg/mL
[2]; Homo sapiens, GBM3, 24 h, read-out: Cytotoxicity EC50 (μg/ml) 24 h, CSC GBM #3, 24 h
  EC50: 15 µg/mL
[2]; Homo sapiens, GBM6, 24 h, read-out: Cytotoxicity EC50 (μg/ml) 24 h, CSC GBM #6, 24 h
  EC50: 10 µg/mL
[5]
  half-life: ~30 min
[6]
  effect on pancreatic stem cell like multicellular spheroid cultures: antineoplastic effect
MiaPaca2 tumor
  decrease of MiaPaca2 tumor volume compared to control: about 2 fold
PancTu I tumor
  decrease of PancTu I tumor volume compared to control: about 3 fold
[7]
  relative tumor volume compared to control: slightly reduced relative tumor volume compared to control
[8]
  tumor volume compared to control: significantly reduce tumor volume compared to control
Tumor stem cells
  concentration effective at killing tumor stem cells: 0.01 µg/mL
[9]
  sensitivity of CSCs versus corresponding glioma bulk cells, based on EC50: about 3 fold
[10]
  EC50: ~50 µg/mL (≈ 176 µM)
[11]
  toxic effect on the mice during the study: no toxic effect

## O=S1(=O)CCN(CN2COCCS2(=O)=O)CN1 [B1]
[1]
  effectiveness in treating cancers in patients: effective in treating such cancers
  safety for use in patients: safe for use in patients

## O=S1(=O)CCNCO1 [A1]
[1]
  effectiveness in treating cancers in patients: effective in treating such cancers
  safety for use in patients: safe for use in patients

## O=S1(=O)CCNCN1 [taurultam]
[2]; CSC GBM #3, 24 h
  Cytotoxicity EC50 (μg/ml) 24 h: 10.5 µg/mL
[2]; CSC GBM #4, 24 h
  Cytotoxicity EC50 (μg/ml) 24 h: 12.5 µg/mL
[2]; CSC GBM #5, 24 h
  Cytotoxicity EC50 (μg/ml) 24 h: 11 µg/mL
[2]; CSC GBM #6, 24 h
  Cytotoxicity EC50 (μg/ml) 24 h: 9 µg/mL
[2]; 24 h
  Cytotoxicity EC50, Mean ± SD: 11 ± 1.4 µg/mL
[2]; 24 h, listed as Taurultam
  Cytotoxicity EC50, Mean ± SD: 11 ± 1.4 µg/mL
[12]
  Cytotoxicity EC50: 19.3 µg/mL
[9]
  sensitivity of CSCs versus corresponding glioma bulk cells, based on EC50: ~2 fold
[9]; murine CSCs cultured 7 days, 24 hours treatment
  Cytotoxicity EC50: 10 µg/mL
[10]
  EC50: ~50 µg/mL (≈ 367 µM)
